Laboratory results published in patent US5221616A, “Prevention of spontaneous complement activation in mammalian biological fluids” (Quidel Corporation, priority 1988, dated 1993).
Entries after “also recorded” stand apart in the source; their conditions may differ.

What was measured:
C3 [1] = target: T1, C3 (Homo sapiens, UniProt P01024); assay: polyhydroxyl compounds in Buffer B mixed with EDTA-NHP: iC3b and C3d,g/iC3b fragment EIA; type: biochemical; settings: 22° C. for 48 hr
T1 construct: 250 μL of freshly drawn EDTA-normal human plasma (EDTA-NHP); from tissue; host or cells: normal human blood plasma (EDTA plasma; in A12 also citrate and heparin plasma)
T1 sequence (P01024 672-1663 limits assumed): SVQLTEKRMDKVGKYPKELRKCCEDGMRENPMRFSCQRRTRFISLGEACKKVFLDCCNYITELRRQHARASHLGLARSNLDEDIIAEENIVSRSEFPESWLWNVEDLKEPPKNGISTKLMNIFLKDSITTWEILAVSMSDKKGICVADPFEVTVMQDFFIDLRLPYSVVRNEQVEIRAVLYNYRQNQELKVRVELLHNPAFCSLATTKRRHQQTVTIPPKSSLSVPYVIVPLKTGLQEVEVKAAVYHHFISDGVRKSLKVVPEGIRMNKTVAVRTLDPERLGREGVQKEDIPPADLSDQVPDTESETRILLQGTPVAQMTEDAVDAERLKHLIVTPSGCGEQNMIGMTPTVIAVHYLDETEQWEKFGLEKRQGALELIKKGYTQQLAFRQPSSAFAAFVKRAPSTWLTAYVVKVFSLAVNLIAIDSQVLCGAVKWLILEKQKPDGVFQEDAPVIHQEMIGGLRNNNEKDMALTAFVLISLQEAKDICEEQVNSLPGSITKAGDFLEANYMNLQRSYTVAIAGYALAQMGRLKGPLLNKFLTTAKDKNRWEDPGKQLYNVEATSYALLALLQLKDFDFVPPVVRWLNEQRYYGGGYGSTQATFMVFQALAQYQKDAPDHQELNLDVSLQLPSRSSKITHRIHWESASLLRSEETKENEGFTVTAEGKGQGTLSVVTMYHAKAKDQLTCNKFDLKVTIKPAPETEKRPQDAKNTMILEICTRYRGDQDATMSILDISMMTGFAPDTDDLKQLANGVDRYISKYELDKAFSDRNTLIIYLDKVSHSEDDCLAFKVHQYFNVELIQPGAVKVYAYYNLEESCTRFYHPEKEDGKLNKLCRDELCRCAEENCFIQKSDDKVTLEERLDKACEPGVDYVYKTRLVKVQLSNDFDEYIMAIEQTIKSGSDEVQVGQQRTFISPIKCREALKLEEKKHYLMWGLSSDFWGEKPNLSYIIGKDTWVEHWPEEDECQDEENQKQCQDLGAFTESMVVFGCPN
T1 sequence (P01024 23-667 limits assumed): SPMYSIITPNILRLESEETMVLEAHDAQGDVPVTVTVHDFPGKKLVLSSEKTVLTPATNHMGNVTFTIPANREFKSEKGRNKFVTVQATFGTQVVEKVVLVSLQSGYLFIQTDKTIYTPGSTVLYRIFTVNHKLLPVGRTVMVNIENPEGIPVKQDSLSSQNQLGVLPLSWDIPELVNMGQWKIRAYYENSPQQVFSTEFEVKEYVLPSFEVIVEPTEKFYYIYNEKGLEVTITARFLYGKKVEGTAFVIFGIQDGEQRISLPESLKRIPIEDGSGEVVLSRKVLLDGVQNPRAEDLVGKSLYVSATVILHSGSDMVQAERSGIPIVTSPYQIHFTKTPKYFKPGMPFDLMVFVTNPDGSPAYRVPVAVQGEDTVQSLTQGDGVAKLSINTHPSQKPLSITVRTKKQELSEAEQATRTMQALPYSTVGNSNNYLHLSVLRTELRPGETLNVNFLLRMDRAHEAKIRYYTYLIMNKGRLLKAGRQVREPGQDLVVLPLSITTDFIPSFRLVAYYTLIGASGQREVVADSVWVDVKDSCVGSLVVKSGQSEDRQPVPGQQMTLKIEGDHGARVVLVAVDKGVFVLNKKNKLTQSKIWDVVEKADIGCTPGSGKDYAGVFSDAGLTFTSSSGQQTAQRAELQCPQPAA
Description: (§1) An extensive series of experiments were conducted to examine the ability of a large variety of polyhydroxyl compounds to prevent the spontaneous activation of C in EDTA-NHP during in vitro storage at 22° C for 48 hr. EDTA-NHP was mixed with an equal volume of Buffer B containing the polyhydroxyl compound to be tested. In these experiments Buffer B consisted of 40 mM EDTA and 30 IU sodium heparin/mL dissolved in deionized water, pH 7.2. The final concentration of polyhydroxyl compound dissolved in Buffer B varied for each compound due to differences in solubility. For each set of experiments, EDTA-NHP was also diluted and mixed with an equal volume of PBS (untreated control). The EDTA-NHP samples mixed with each polyhydroxyl compound dissolved in Buffer B and the corresponding untreated controls were incubated at 22° C. for 48 hr, stored at -70° C. and subsequently assayed for C4d, iC3b, C3d,g/iC3b and Bb complement fragment levels as well as for circulating immune complex levels using the Raji Cell Replacement EIA. […] This conclusion was based upon the iC3b percent protection values determined for each of the polyhydroxyl compounds (treated samples) as listed in FIG. 14.
(§2) The concentrations, expressed as μg analyte/mL, of a number of different activation products of spontaneous complement activation were measured in the course of these experiments. In an effort to normalize the data obtained from the various determinations so that the results from different assays could be directly compared to one another, a percent protection value was calculated for each analyte measured. The precent protection values were calculated by dividing the μg analyte/mL in the non-incubated, time-zero control sample by the μg analyte/mL in the experimental sample, multiplied by 100%. A percent protection value of 70 to 130% for any given analyte measured in an experimental sample was considered to indicate that the invention formulation tested was fully effective at providing protection against the occurrence of spontaneous complement activation. Ideally, the effective composition formulation would provide full protection against the occurrence of spontaneous complement activation in a complement-containing sample for all of the analytes measured. In fact, this was the case with several polyhydroxyl compounds when they were present in sufficiently high concentrations in a preferred embodiment of the invention.
A plasma dilution of 1:50 and a serum dilution of 1:100 were used in the iC3b fragment EIA tests. The immunochemical reaction specificity of MoAb 013III-1.1.6.1 has been published previously in abstract form, W. P. Kolb, et al., Fed. Proc. 44:990 (1985).
A plasma dilution of 1:250 and a serum dilution of 1:500 were used in the C3d,g/iC3b EIA tests. […] 135:2015-2019 (1985); Y. Kanayama, et al., J. Immunol. Meth. 88:33-36 (1986). The immunochemical reaction specificity of the Cytotech MoAb 013III-31.4.3.2.2has been published previously in abstract form, W. P. Kolb, et al., FASEB Journal 2:A1834 (1988).

C4 [2] = assay: polyhydroxyl compounds in Buffer B mixed with EDTA-NHP: C4d fragment EIA; type: biochemical, human; settings: 22° C. for 48 hr
Description: as §1, §2

C3 [3] = target: T1, C3; assay: iC3b fragment EIA: spontaneous C3 activation in EDTA-NHP incubated with increasing concentrations of polyhydroxyl compound in water; type: biochemical; settings: 22° C. for 48 hr; for spontaneous iC3b fragment production: increasing final concentrations of compound (galactose up to 2M)
Description: FIG. 1. […] 250 μL of freshly drawn EDTA-normal human plasma (EDTA-NHP) was mixed with 0 to 250 μL of 4M β-D-glucose dissolved in deionized water. All reaction mixtures were brought up to a final reaction volume of 500 μL using deionized water as the diluent. Each reaction mixture was mixed thoroughly, incubated at 22° C. for 48 hr and assayed for iC3b fragment levels. A non-incubated control (-70° C.) was prepared by mixing 1 part EDTA-NHP with 1 part 4M β-D-glucose dissolved in deionized water. This control reaction mixture was stored at -70° C. until it was assayed in the iC3b fragment EIA along with the incubated experimental samples.
Several different polyhydroxyl compounds were individually dissolved in deionized water to obtain solutions of each compound at a concentration approaching saturation at 22° C. Freshly drawn EDTA-NHP was mixed with increasing concentrations of the polyhydroxyl compound to be tested keeping the final reaction volumes constant. For example, 250 μL of freshly drawn EDTA-NHP was mixed with 0 to 250 μL of the concentrated polyhydroxyl solution to be tested. All reaction mixtures were brought up to a final reaction volume of 500 μL using deionized water as the diluent. Each reaction mixture was mixed thoroughly and incubated at 22° C. for 48 hr. A non-incubated control was prepared for each experiment by mixing 1 part EDTA-NHP with 1 part of the concentrated polyhydroxyl solution to be tested. This control mixture was held at -70° C. until it was thawed out, along with the other experimental samples, and assayed for the occurrence of spontaneous complement activation. For this initial set of experiments, iC3b fragment levels were quantitated in all test samples using the Cytotech monoclonal antibody based EIA procedure. The first analyte selected to be measured was iC3b since, based on previously published data as outlined above, it was anticipated that the C3 protein would be the most susceptible to spontaneous activation upon storage of EDTA-NHP in vitro.
All of the EIA tests employed in these studies utilized solid-phase monoclonal antibody capture assay kit procedures (Cytotech, Inc., San Diego, Calif.). The procedure was basically the same for each EIA kit. Briefly, in the first step of each EIA assay, 100 μL of standards, controls and diluted test specimens were incubated at 22° C., i.e., room temperature, in duplicate polystyrene microtiter wells precoated with a capture monoclonal antibody which specifically reacted with the complement fragment or complex under investigation. During this first incubation period, complement fragments or complexes were bound to the monoclonal antibody coated microassay wells. A wash cycle removed unbound materials.
In the second step, 50 μL of horseradish peroxidase (HRP)-conjugated purified IgG antibody, which reacted with the captured complement fragment or complex analyte, was added to each well and incubated at 22° C. A wash cycle removed unbound conjugate.
In the third step, 100 μL of the HRP enzyme substrate ABTS (0.034% ABTS and 0.0126% H2 O2 in 100 mM sodium citrate buffer, pH 4.0) was added to each well and incubated at 22° C. The bound HRP-conjugatedantibody reacted with the ABTS substrate producing a green color which was proportional to the amount of specimen analyte bound. The HRP-enzymatic reaction was stopped upon addition of 50 μL 250 mM oxalic acid. The substrate color intensity present in each well was measured at 405 nm using an automated EIA microplate reader and the analyte concentration/mL in the original test specimen was determined for each analyte from the appropriate standard curve.
iC3b EIA: The capture mouse monoclonal antibody used to coat microtiter wells for the iC3b fragment EIA was Cytotech MoAb 013III-1.1.6.1 which reacts with a neoantigenic determinant expressed on the iC3b activation fragment of human C3.

complement = assay: protection against spontaneous complement activation in complement-containing samples during in vitro storage (summary of fragment EIAs); type: biochemical, human; settings: for final concentration identified as particularly effective: added to a complement-containing sample; for range of final concentrations found to provide protection against spontaneous complement activation: complement-containing samples during in vitro storage; for acceptable range of final concentration at which spontaneous C activation will be prevented: ingredient of the formulation
Description: A method for screening compounds to determine the complement preventing effectiveness thereof is described in detail in the course of the following experimental description and discussion. The method essentially comprises treating complement-containing samples with various doses of the test compounds, storing the thus-treated sample at conventional storage temperature for a minimum of about 48 hours and determining the extent of complement activation which occurs during the storage period by performing assays on the sample for various complement activation products. The results are compared with determination of the level of the same activation products at the beginning of the storage period, i.e., a non-incubated control sample. A non-treated control, comprising an identical sample diluted with phosphate buffered saline (PBS) in a volume ratio identical to that of the sample and polyhydroxyl solution is similarly assayed.
as §2
A percent protection value range of 70 to 130% was used as a criterion to define that a given invention embodiment was able to provide full protection against spontaneous complement activation for the following reasons: The coefficient of variation for the EIA kits employed in these studies ranged from 10-30% when analyte levels were measured in the very low range of values found in freshly-drawn normal human plasma samples. Therefore, in order to ensure that a given result fell within the variability range of the assays employed, a percent protection value between 70 and 130% was considered to represent a fully protective effect.

C4 [4] = assay: C4d fragment EIA: heparin plasma or heparin whole blood stored on ice or at 22° C.; type: biochemical, human
Description: The first set of experiments addressed the question of how long can a human complement-containing sample be incubated at various temperatures in vitro before evidence of spontaneous C activation can be measured. In FIG. 16 results are presented in which freshly drawn EDTA-NHP, heparin plasma, heparin whole blood or EDTA whole blood were stored on ice (1° C.) or at 22° C. […] In the case of the whole blood samples, the cells were removed by centrifugation before the plasma supernatants were collected and stored at -70° C. […] The other components of the invention composition are also required in order to obtain full protection against spontaneous C activation. This point will be covered in further detail below.

[5] = tested on: C3, Factor B, or the terminal complement proteins; assay: effect of sodium heparin on storage behavior of other complement proteins; type: biochemical, human; settings: sodium heparin in the stabilizing formulation
[6] = tested on: coagulation system and fibrin clot formation; settings: whole blood or plasma; cited from earlier work
complement system = settings: plasma or serum; cited from earlier work

## N[C@@H]1C(O)O[C@H](CO)[C@@H](O)[C@@H]1O (stereo partly drawn) [D-mannosamine]
C3 [1]; final concentration 2M
  prevention of spontaneous activation of C3: ineffective

## N[C@H]1C(O)O[C@H](CO)[C@@H](O)[C@@H]1O (stereo partly shown) [glucosamine]
C3 [1]; final concentration 0.5M
  prevention of spontaneous activation of C3: ineffective

## OC[C@@H](O)[C@@H](O)[C@H](O)[C@H](O)CO [D-mannitol]
C3 [1]; final concentration 1.5M
  prevention of spontaneous activation of C3: ineffective; also recorded: unable to inhibit
C4 [2]; final concentration 1.5M
  prevention of spontaneous activation of C4 (C4d fragment production): unable to inhibit

## OC[C@H]1O[C@H](OC[C@H]2OC(O)[C@H](O)[C@@H](O)[C@@H]2O)[C@H](O)[C@@H](O)[C@H]1O (stereo partly shown) [melibiose]
C3 [3]
  spontaneous iC3b fragment production: inhibited with increasing concentrations
complement
  final concentration identified as particularly effective: ≥ 1.5 M
  range of final concentrations found to provide protection against spontaneous complement activation: 0.6 to 4 M

## OC[C@H]1O[C@@](CO)(O[C@H]2O[C@H](CO)[C@@H](O)[C@H](O)[C@H]2O)[C@@H](O)[C@@H]1O [sucrose]
C3 [3]
  spontaneous iC3b fragment production: inhibited with increasing concentrations
complement
  final concentration identified as particularly effective: ≥ 1.75 M
  range of final concentrations found to provide protection against spontaneous complement activation: 1.2 to 4 M

## OC[C@H]1O[C@H](OC[C@H]2O[C@H](O[C@]3(CO)O[C@H](CO)[C@@H](O)[C@@H]3O)[C@H](O)[C@@H](O)[C@@H]2O)[C@H](O)[C@@H](O)[C@H]1O [D-raffinose]
C3 [1]; final concentration 1.5M
  prevention of spontaneous activation of C3: ineffective; also recorded: unable to inhibit
C4 [2]; final concentration 1.5M
  prevention of spontaneous activation of C4 (C4d fragment production): unable to inhibit

## O[C@H]1[C@H](O)[C@@H](O)[C@H](O)[C@@H](O)[C@H]1O [inositol]
C3 [1]; final concentration 0.5M
  prevention of spontaneous activation of C3: ineffective

## sodium heparin
C4 [4]; heparin alone, 22° C for as long as 24 hr
  prevention of spontaneous activation of C4: not sufficient to prevent
C4 [4]; plasma or whole blood collected in sodium heparin, 1° C. or 22° C.
  time without clear evidence of spontaneous C4 activation: ≥ 6 h
complement
  acceptable range of final concentration at which spontaneous C activation will be prevented: 15-60 IU/mL
[5]
  effect on storage behavior of C3, Factor B, or the terminal complement proteins: does not improve the storage behavior

## OC[C@H]1O[C@H](O[C@H]2O[C@H](CO)[C@@H](O)[C@H](O)[C@H]2O)[C@H](O)[C@@H](O)[C@@H]1O [trehalose]
C3 [3]; compared with -70° C. control
  final concentration that completely prevented spontaneous iC3b fragment production: ≥ 1.3 M
C3 [3]
  spontaneous iC3b fragment production: inhibited with increasing concentrations
complement
  final concentration identified as particularly effective: ≥ 1.3 M
  range of final concentrations found to provide protection against spontaneous complement activation: 0.6 to 3.5 M

## O=CC[C@H](O)[C@H](O)CO [2-deoxy-D-ribose]
C3 [1]; final concentration 2M
  prevention of spontaneous activation of C3: ineffective
C4 [2]; final concentration 2M
  prevention of spontaneous activation of C4 (C4d fragment production): able to prevent

## galactose
C3 [3]
  spontaneous iC3b fragment production: only slight inhibition
C3 [1]; final concentration 2M
  prevention of spontaneous activation of C3: ineffective

## O=C(O)CN(CCN(CC(=O)O)CC(=O)O)CC(=O)O [EDTA, ethylene diamine tetraacetic acid]
complement
  acceptable range of final concentration at which spontaneous C activation will be prevented: 1 to 40 mM
[6]
  final concentration that inhibits activation of the coagulation system and fibrin clot formation: ≥ 1 mM
Complement system
  final concentration that inhibits activation of the complement system: ≥ 1 mM

## OC[C@H]1O[C@@H](OC[C@H]2OC(O)[C@H](O)[C@@H](O)[C@@H]2O)[C@H](O)[C@@H](O)[C@@H]1O (stereo partly shown) [gentiobiose]
C3 [3]
  spontaneous iC3b fragment production: inhibited with increasing concentrations
complement
  final concentration identified as particularly effective: ≥ 1.5 M
  range of final concentrations found to provide protection against spontaneous complement activation: 1.0 to 4 M
